Earlier results in patent US8293900B2, “Acylated spiropiperidine derivatives as melanocortin-4 receptor modulators” (Merck Sharp & Dohme Corp, priority 2005, dated 2012).

Columns and labels:
[1] = oral route
[2] = injected intramuscularly or subcutaneously, males with psychogenic erectile dysfunction

In the case of “Ac-Nle-c[Asp-His-DPhe-Arg-Trp-Lys]-NH2 [MT-II]”, the “absorption into the systemic circulation” value [1] is listed as “not absorbed into the systemic circulation” and the response rate [2] is listed as 75%.
